One assay has as its target BACE1 (Homo sapiens, UniProt P56817). Description: Biochemical FRET based assay. The note with it: Biochemical FRET based assay pIC50, recombinant BACE1 1 μg/ml, 120 min, room temperature, pH 5.0. The source says: This assay is a Fluorescence Resonance Energy Transfer Assay (FRET) based assay. The substrate for this assay is an APP derived 13 amino acids peptide that contains the ‘Swedish’ Lys-Met/Asn-Leu mutation of the amyloid precursor protein (APP) β-secretase cleavage site. This substrate also contains two fluorophores: (7-methoxy-coumarin-4-yl) acetic acid (Mca) is a fluorescent donor with excitation wavelength at 320 nm and emission at 405 nm and 2,4-Dinitrophenyl (Dnp) is a proprietary quencher acceptor. […] Upon cleavage by BACE1, the fluorophore Mca is separated from the quenching group Dnp, restoring the full fluorescence yield of the donor. The increase in fluorescence is linearly related to the rate of proteolysis (Koike H et al. J. Biochem. 1999, 126, 235-242).
Briefly in a 384-well format recombinant BACE1 protein in a final concentration of 1 μg/ml is incubated for 120 min at room temperature with 10 μm substrate in incubation buffer (40 mM Citrate buffer pH 5.0, 0.04% PEG, 4% DMSO) in the absence or presence of compound. Next the amount of proteolysis is directly measured by fluorescence measurement at T=0 and T=120 (excitation at 320 nm and emission at 405 nm). Results are expressed in RFU, as difference between T120 and T0
From this an IC50 value (inhibitory concentration causing 50% inhibition of activity) can be obtained.

The test system of assay [1] is Aβ42. Description: Cellular αlisa assay in SKNBE2 cells, Aβ42. The note with it: SKNBE2 cells expressing hAPP695, 18 hours incubation. The class given is cell-based, human. How it is done:
(§1) In two αlisa assays the levels of Aβtotal and Aβ42 produced and secreted into the medium of human neuroblastoma SKNBE2 cells are quantified. The assay is based on the human neuroblastoma SKNBE2 expressing the wild type Amyloid Precursor Protein (hAPP695). The compounds are diluted and added to these cells, incubated for 18 hours and then measurements of Aβ42 and Aβtotal are taken. Aβtotal and Aβ42 are measured by sandwich αlisa. αlisa is a sandwich assay using biotinylated antibody AbN/25 attached to streptavidin coated beads and antibody Ab4G8 or cAb42/26 conjugated acceptor beads for the detection of Aβtotal and Aβ42 respectively. In the presence of Aβtotal or Aβ42, the beads come into close proximity. The excitation of the Donor beads provokes the release of singlet oxygen molecules that triggers a cascade of energy transfer in the Acceptor beads, resulting in light emission. Light emission is measured after 1 hour incubation (excitation at […] and emission at 615 nm).
(§2) From this an […] value (inhibitory concentration causing 50% inhibition of activity) can be obtained.

Assay [2] relates to Aβtotal. Description: Cellular αlisa assay in SKNBE2 cells, Aβtotal. In kind it is cell-based, human. The note with it: SKNBE2 cells expressing hAPP695, 18 hours incubation. Here is the method:
as §1, §2

Assay [3] deals with Aβ42. Description: In vivo efficacy: brain Aβ42 lowering (ELISA). On the set-up: species or system mouse. The note with it: 30 mg/kg, p.o., 4 h. after administration, soluble fraction. From the text:
(§3) To determine whether acute administration of an Aβ42 peptide lowering agent would reduce Aβ peptide levels in vivo, non-transgenic rodents, e.g. mice or rats were used. Animals treated with the Aβ peptide lowering agent were examined and compared to those untreated or treated with vehicle and brain levels of soluble Aβ42 and total Aβ were quantitated by standard techniques, for example, using ELISA. Treatment periods varied from hours (h) to days and were adjusted based on the results of the Aβ42 lowering once a time course of onset of effect could be established.
(§4) A typical protocol for measuring Aβ42 lowering in vivo is shown but it is only one of many variations that could be used to optimize the levels of detectable Aβ. […] After a certain time, usually 2 or 4 h (as indicated in Table 7), the animals were sacrificed and Aβ42 levels were analysed.
(§5) Blood was collected by decapitation and exsanguinations in EDTA-treated collection tubes. […] The left hemisphere was stored at −18° C. for quantitative analysis of test compound levels. […]
(§6) Mouse brains from non-transgenic animals were resuspended in 8 volumes of 0.4% DEA (diethylamine)/50 mM NaCl containing protease inhibitors (Roche-11873580001 or 04693159001) per gram of tissue, e.g. for 0.158 g brain, add 1.264 ml of 0.4% DEA. […] Nine parts of supernatant were neutralized with 1 part 0.5 M Tris-HCl pH 6.8 and used to quantify Aβtotal and Aβ42. […]
On the technique in general: An ELISA detects its analyte on a solid surface through an enzyme-linked reagent.

Assay [4] deals with Aβtotal. Description: In vivo efficacy: brain Aβtotal lowering (ELISA). On the set-up: species or system mouse. The note with it: 30 mg/kg, p.o., 4 h. after administration, soluble fraction.
Excerpt: as §3, §4, §5, §6

pIC50: −log10 of the molar value.

BACE1, sequence (P56817 46-501): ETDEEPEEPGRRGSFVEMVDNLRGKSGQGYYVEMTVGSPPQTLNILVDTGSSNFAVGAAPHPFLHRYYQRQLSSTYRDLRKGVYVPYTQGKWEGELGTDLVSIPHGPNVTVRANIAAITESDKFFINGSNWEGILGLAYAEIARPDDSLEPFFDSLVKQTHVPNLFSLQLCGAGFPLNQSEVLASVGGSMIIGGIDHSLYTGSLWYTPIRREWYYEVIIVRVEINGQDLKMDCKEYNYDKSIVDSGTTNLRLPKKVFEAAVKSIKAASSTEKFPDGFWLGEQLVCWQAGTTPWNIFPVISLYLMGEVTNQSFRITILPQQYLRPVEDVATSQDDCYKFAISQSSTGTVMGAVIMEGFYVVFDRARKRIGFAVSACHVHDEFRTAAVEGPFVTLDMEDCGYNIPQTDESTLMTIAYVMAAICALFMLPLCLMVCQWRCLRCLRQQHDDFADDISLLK

A word on the pIC50: it is the negative decadic logarithm of the IC50, by convention in mol/L. In the case of `C[C@@]1(c2cc(NC(=O)c3ccc(F)cn3)ccc2F)Cn2cc(F)cc2C(N)=N1` [Compound 7, (R)-5-Fluoro-pyridine-2-carboxylic acid [3-(1-amino-7-fluoro-3-methyl-3,4-dihydro-pyrrolo[1,2-a]pyrazin-3-yl)-4-fluoro-phenyl]-amide], at BACE1, the negative logarithm of the IC50 (pIC50) is 7.38. The IC50 is 6.61 nM in the assay with Aβ42 [1] (Homo sapiens, SKNBE2, 18 h, read-out: Cellular αlisa assay in SKNBE2 cells Aβ42 pIC50 (converted)) and 5.62 nM with Aβtotal [2] (Homo sapiens, SKNBE2, 18 h, read-out: Cellular αlisa assay in SKNBE2 cells Aβtotal pIC50 (converted)). For the same molecule, the “Aβ42 (%Ctrl)_Mean” value in the assay on Aβ42 [3] was 73 %Ctrl. In addition, the “Aβtotal (%Ctrl)_Mean” value in the assay with Aβtotal [4] was 99 %Ctrl.

As to `COCC1(c2cc(NC(=O)c3ccc(F)cn3)ccc2F)Cn2cc(C(F)(F)F)cc2C(N)=N1` (centres unmarked) [Compound 30], the negative-log IC50 (pIC50) on BACE1 was 4.46. Besides, in the assay with Aβ42 [1], the “Cellular αlisa assay in SKNBE2 cells Aβ42 pIC50” value is less than 5. In the assay on Aβtotal [2], the “Cellular αlisa assay in SKNBE2 cells Aβtotal pIC50” value was less than 5.

The values above are taken from patent publication US9845326B2, “Substituted 3,4-dihydropyrrolo[1,2-A]pyrazines as beta-secretase (BACE) inhibitors” (priority 2011, dated 2017).
